Reference: US7514251B2, “O-methyltransferases of tetrahydrobenzylisoquinoline alkaloid biosynthesis in Papaver somniferum” (priority 2003, dated 2009)
Read-outs that look alike come from different tables or passages of the source. Marks after values point to notes of the source that are not given here.

Tests used:
[1] = target: T1, PSOMT2 ((R,S)-norcoclaurine 6-O-methyltransferase) (Papaver somniferum, UniProt Q6WUC1); test: Radioassay of recombinant PSOMT2 with [methyl-3H]-AdoMet (substrate specificity, kinetics, pH and temperature optima); format: biochemical; conditions: for Substrate specificity, relative activity of PSOMT2: 100% activity = 2.0 pmoles/sec/mg total protein, radioassay
T1 construct: The full-length cDNA generated by RT-PCR was ligated into pFastBac HTa; His6 (N); made in house; host or cells: Spodoptera frugiperda Sf9 (baculovirus, pFastBac HTa)
T1 sequence (Q6WUC1 1-346): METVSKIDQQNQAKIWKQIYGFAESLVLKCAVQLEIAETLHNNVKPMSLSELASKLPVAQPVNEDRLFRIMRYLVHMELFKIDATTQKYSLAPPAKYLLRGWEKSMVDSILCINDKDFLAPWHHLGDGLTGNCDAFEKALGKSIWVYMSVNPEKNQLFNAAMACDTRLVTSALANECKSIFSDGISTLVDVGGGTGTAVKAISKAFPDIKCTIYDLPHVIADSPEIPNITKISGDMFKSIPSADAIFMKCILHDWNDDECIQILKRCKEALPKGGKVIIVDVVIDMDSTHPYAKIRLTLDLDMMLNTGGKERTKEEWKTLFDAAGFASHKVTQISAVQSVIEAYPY
Excerpt: (§1) Heterologous Expression and Enzyme Purification—The full-length cDNA generated by RT-PCR was ligated into pFastBac HTa that had been digested with restriction endonucleases BamHI and NotI. The recombinant plasmid was transposed into baculovirus DNA in the Escherichia coli strain DH10BAC (Life Technologies) and then transfected into Spodoptera frugiperda Sf9 cells according to the manufacturer's instructions. The insect cells were propagated and the recombinant virus was amplified according to (16,17). INSECT-XPRESS serum-free medium (Bio Whittaker) was used in the enzyme expression experiments.
(§2) After infection of 20 ml suspension grown insect cells had proceded for 3-4 days at 28° C. and 130 rpm, the cells were removed by centrifugation under sterile conditions at 900× g for 5 min at 4° C. All subsequent steps were performed at 4° C. The pellet was discarded and to the medium was added 0.73 g NaCl, 2.5 ml glycerol and 50 μl […]-mercaptoethanol. The pH was adjusted to 7.0 with 1.0 M NaOH. The His-tagged O-methyltransferase was then purified by affinity chromatography using a cobalt resin (Talon, Clontech) according to the manufacturer's instructions.
(§3) Enzyme assay and product identification: The O-methylation reactions catalysed by the two O-methyltransferases were assayed at least two times in duplicate according to Rüffer et al. (1983a; 1983b) as follows. Substrate (25 nmol), [methyl-3H]-AdoMet (20,000 dpm, 0.4 fmol), AdoMet (10 nmol) Tris/HC1 buffer pH 8.0 (10 μmol), ascorbate (5 μmol) and 5-10 μg of enzyme were incubated in a total volume of 150 μl at 35° C. for 5-60 min. The enzymic reaction was terminated by addition of 200 μl ethylacetate. The organic phase ([…]) was added to 3 ml high flash point liquid scintillation cocktail (Packard) and the radioactivity quantified with a Beckman LS6000TA liquid scintillation counter.
(§4) General Methods—Total RNA was isolated and RNA gels were run and blotted as described previously (20). Genomic DNA was isolated and DNA gels were run and blotted according to (21). cDNA clones were labeled by PCR labeling with [[…]-^32P]dATP. Hybridized RNA on RNA gel blots and DNA on DNA gel blots were visualized with a STORM phosphor imager (Molecular Dynamics). The entire nucleotide sequence on both DNA strands of the full-length clone was determined by dideoxy cycle sequencing using internal DNA sequences for the design of deoxyoligonucleotides as sequencing primers. Saturation curves and double reciprocal plots were constructed with the Fig. P program Version 2.7 (Biosoft, Cambridge, UK). The influence of pH on enzyme activity was monitored in sodium citrate (pH 4-6), sodium phosphate (pH 6-7.0) and Tris-HCl (pH 7.0-9), glycine/NaOH (pH 9-10.5) buffered solutions.

[2] = target: T2, PSOMT1 ((R,S)-reticuline 7-O-methyltransferase) (Papaver somniferum, UniProt Q6WUC2); format: biochemical; conditions: for methylated by PSOMT1 (radioassay, in words): one of forty substrates tested; for Km: read-out: Km Substrate
T2 construct: The full-length cDNA generated by RT-PCR was ligated into pFastBac HTa; His6 (N); made in house; host or cells: Spodoptera frugiperda Sf9 (baculovirus, pFastBac HTa)
T2 sequence (Q6WUC2 whole entry): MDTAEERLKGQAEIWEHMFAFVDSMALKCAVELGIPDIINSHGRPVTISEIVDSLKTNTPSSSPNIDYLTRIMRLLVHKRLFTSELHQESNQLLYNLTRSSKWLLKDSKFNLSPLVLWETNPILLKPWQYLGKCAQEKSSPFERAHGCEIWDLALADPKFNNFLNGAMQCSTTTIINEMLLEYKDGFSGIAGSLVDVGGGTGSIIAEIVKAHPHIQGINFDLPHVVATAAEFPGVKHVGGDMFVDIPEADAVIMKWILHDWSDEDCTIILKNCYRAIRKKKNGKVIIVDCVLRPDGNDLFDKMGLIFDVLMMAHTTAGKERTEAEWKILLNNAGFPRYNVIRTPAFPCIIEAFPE
Excerpt: as §1, §2, §3, §4

[3] = 100% activity = 1.5 pmoles/sec/mg total protein, radioassay

Compound	Substrate specificity, relative activity of PSOMT2 [1]	Substrate specificity, relative activity of PSOMT1 [2, 3]	also measured
COc1c(-c2ccc(O)c(O)c2)oc2cc(O)cc(O)c2c1=O [Quercetin-3-methylether]	0%	0%	
COc1cc2c(cc1O)[C@H](Cc1ccc(O)cc1)NCC2 [(S)-Coclaurine]	0%	0%	
COc1ccc(C[C@H]2NCCc3cc(OC)c(O)cc32)cc1O [(R)-Norreticuline]	0%	0%	
CN1CC[C@]23c4c5ccc(O)c4O[C@H]2[C@@H](O)C=C[C@H]3[C@H]1C5 [Morphine]	0%	0%	
COc1ccccc1O [Guaiacol]	0%	242%	Vmax Substrate ([2]; PSOMT1): 6 pmol/s; kcat Substrate ([2]; PSOMT1): 0.1 s⁻¹; kcat/Km ratio relative to the values determined for reticuline ([2]; PSOMT1): 135%; pH optimum of methylation ([2]; PSOMT1): 8.0; ratio kcat/Km ([2]; PSOMT1): 5870 M⁻¹ s⁻¹; temperature optimum ([2]; PSOMT1): 37 °C; methylated by PSOMT1 (radioassay, in words) [2]: methylates; Km ([2]; PSOMT1): 17 µM
COc1cc(CC2NCCc3cc(OC)c(O)cc32)ccc1O (racemic) [(R,S)-Nororientaline]	0%	0%	
COc1ccc(C(=O)O)cc1O [Isovanillic acid]	0%	40%	Vmax Substrate ([2]; PSOMT1): 1 pmol/s; kcat Substrate ([2]; PSOMT1): 0.02 s⁻¹; pH optimum of methylation ([2]; PSOMT1): 7.5; ratio kcat/Km ([2]; PSOMT1): 1210 M⁻¹ s⁻¹; methylated by PSOMT1 (radioassay, in words) [2]: methylates; Km ([2]; PSOMT1): 14 µM
Oc1ccc(CC2NCCc3cc(O)c(O)cc32)cc1 (racemic) [(R,S)-Norcoclaurine]	100^a %	0%	Vmax Substrate ([1]; PSOMT2): 5 pmol/s; kcat Substrate ([1]; PSOMT2): 0.08 s⁻¹; Km ([1]; PSOMT2, co-substrate AdoMet with the named substrate, read-out: Km AdoMet): 100 µM; Km ([1]; PSOMT2, read-out: Km Substrate): 10 µM; pH range of methylation ([1]; PSOMT2, wide pH range): 6.0-9.0; methylated by PSOMT2 (radioassay, in words) ([1]; one of forty substrates tested): methylating
COc1cc2c(cc1O)[C@@H]1Cc3ccc(OC)c(O)c3CN1CC2 [(S)-Scoulerine]	0%	0%	
COc1cc2c(cc1O)C[C@H]1c3cc(O)c(OC)cc3CCN1C2 [(S)-Coreximine]	0%	0%	
COC1=C[C@]23CCN(C)[C@H](Cc4ccc(OC)c(O)c42)C3=CC1=O [Salutaridine]	0%	0%	
O=c1c(O)c(-c2ccc(O)cc2O)oc2cc(O)cc(O)c12 [Morin]	0%	0%	
COc1ccc(C[C@H]2c3cc(O)c(O)cc3CCN2C)cc1O [(S)-4′-O-Methyllaudanosoline]	0%	0%	
NCCc1ccc(O)c(O)c1 [Dopamine]	0%		Substrate specificity, relative activity of PSOMT1 [2]: 0%
Oc1ccccc1O [Catechol]	0%	0%	
COc1cc2c(cc1O)C(Cc1ccc(O)c(O)c1)N(C)CC2 (racemic) [(R,S)-6-O-Methyllaudanosoline]	0%	0%	
COc1ccc(CC2NCCc3cc(OC)c(O)cc32)cc1 (racemic) [(R,S)-4′-O-methylcoclaurine]	0%	0%	
COc1cc(C(=O)O)ccc1O [Vanillic acid]	0%	0%	
COc1cc2c(cc1O)CCNC2Cc1ccc(O)cc1 (racemic) [(R,S)-Isococlaurine]	0%	0%	
O=c1ccc2cc(O)c(O)cc2o1 [Esculetin]	0%	0%	
O=C(O)c1ccc(O)c(O)c1 [Protocatechuic acid]	0%	0%	
COc1ccc(C[C@@H]2NCCc3cc(OC)c(O)cc32)cc1O [(S)-Norreticuline]	0%	0%	
COc1ccc(CC2c3cc(OC)c(OC)cc3CCN2C)cc1O (racemic) [(R,S)-Laudanidine]	0%	0%	
O=c1c(O)c(-c2ccc(O)c(O)c2)oc2cc(O)cc(O)c12 [Quercetin]	0%	0%	
COc1cc2c(cc1O)C(Cc1ccc(O)cc1)N(C)CC2 (racemic) [(R,S)-N-Methylcoclaurine]	0%	0%	
O=C(O)/C=C/c1ccc(O)c(O)c1 [Caffeic acid]	0%	0%	
COc1cc2c(cc1O)[C@H](Cc1ccc(OC)c(OC)c1)N(C)CC2 (racemic) [(R,S)-Codamine]	0%	0%	
COc1ccc2c(c1)CCN[C@H]2Cc1ccc(OC)c(O)c1 [(S)-7-Dehydroxy-norreticuline]	0%	0%	
COc1cc(O)c2c(=O)c(O)c(-c3ccc(O)c(O)c3)oc2c1 [Quercetin-7-methylether]	0%	0%	
COc1ccc2c(c1)CCN[C@@H]2Cc1ccc(OC)c(O)c1 [(R)-7-Dehydroxy-norreticuline]	0%	0%	
